From PubChem BioAssay AID1845212 (Molecular Pharmacology Branch, DTP, NCI, 2023)
Activity calls are given as the source filed them. Rule for the calls: active = viability on the fitted dose curve at most 10% of control; inactive = the rest.

System: NCI-H719 tumor spheroids, viability
Assay: Anticancer human tumor NCI-H719 cell line growth inhibition;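 for IC50: spheroids exposed to compounds for seven days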;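 for viability, T/C: spheroids exposed to compounds for seven days; percent viability relative to DMSO vehicle control as 100%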
Conditions: spheroids with HUVEC and MSC; for IC50: curve of first compound; for viability, T/C: stronger effect = lower value
Procedure, shortened: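 Single agents and combinations were tested on spheroids built from tumor cells plus HUVEC and hMSC, at half-log dilutions starting at or near clinical Cmax, else 10 microM; final DMSO 0.25% (v/v).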

[1] = second compound 1 µM, first compound 0.0316 µM
[2] = second compound 1 µM, first compound 0.1 µM
[3] = second compound 1 µM, first compound 0.316 µM
[4] = second compound 1 µM, first compound 1 µM
[5] = second compound 1 µM, first compound 3.16 µM
[6] = second compound 1 µM, first compound 10 µM
[7] = second compound 3.16 µM, first compound 0.0316 µM
[8] = second compound 3.16 µM, first compound 0.1 µM
[9] = second compound 3.16 µM, first compound 0.316 µM
[10] = second compound 3.16 µM, first compound 1 µM
[11] = second compound 3.16 µM, first compound 3.16 µM
[12] = second compound 3.16 µM, first compound 10 µM
[13] = second compound 10 µM, first compound 0.0316 µM
[14] = second compound 10 µM, first compound 0.1 µM
[15] = second compound 10 µM, first compound 0.316 µM
[16] = second compound 10 µM, first compound 1 µM
[17] = second compound 10 µM, first compound 3.16 µM
[18] = second compound 10 µM, first compound 10 µM
[19] = second compound 31.6 µM, first compound 0.0316 µM
[20] = second compound 31.6 µM, first compound 0.1 µM
[21] = second compound 31.6 µM, first compound 0.316 µM
[22] = second compound 31.6 µM, first compound 1 µM
[23] = second compound 31.6 µM, first compound 3.16 µM
[24] = second compound 31.6 µM, first compound 10 µM
[25] = second compound 100 µM, first compound 0.0316 µM
[26] = second compound 100 µM, first compound 0.1 µM
[27] = second compound 100 µM, first compound 0.316 µM
[28] = second compound 100 µM, first compound 1 µM
[29] = second compound 100 µM, first compound 3.16 µM
[30] = second compound 100 µM, first compound 10 µM

CC(C)n1c(=O)n(C)c2cnc3cc(F)c(-c4ccc(OCCCN5CCCCC5)nc4)cc3c21 + Cn1nnc2c(C(N)=O)ncn2c1=O
IC50 (second compound 1 µM): > 10 µM
IC50 (second compound 3.16 µM): > 10 µM
IC50 (second compound 10 µM): > 10 µM
IC50 (second compound 31.6 µM): > 10 µM
IC50 (second compound 100 µM): > 10 µM
viability, T/C [1]: 94.3%
viability, T/C [2]: 107%
outcome [3]: inactive
viability, T/C [4]: 79.8%
viability, T/C [5]: 139%
viability, T/C [6]: 95.2%
viability, T/C [7]: 89.4%
viability, T/C [8]: 109%
viability, T/C [9]: 111%
viability, T/C [10]: 87.8%
viability, T/C [11]: 148%
viability, T/C [12]: 116%
viability, T/C [13]: 109%
viability, T/C [14]: 104%
viability, T/C [15]: 103%
viability, T/C [16]: 89.2%
viability, T/C [17]: 141%
viability, T/C [18]: 112%
viability, T/C [19]: 119%
viability, T/C [20]: 118%
viability, T/C [21]: 114%
viability, T/C [22]: 97.2%
viability, T/C [23]: 110%
viability, T/C [24]: 94.4%
viability, T/C [25]: 104%
viability, T/C [26]: 86.8%
viability, T/C [27]: 83.7%
viability, T/C [28]: 74.6%
viability, T/C [29]: 82.5%
viability, T/C [30]: 68.5%

CC1COCCN1c1cc(-c2ccnn2C)c2ccnc(-c3ccn[nH]3)c2n1 (stereo not given) + Cn1nnc2c(C(N)=O)ncn2c1=O
IC50 (second compound 1 µM): 0.0811 µM
IC50 (second compound 3.16 µM): 0.0602 µM
IC50 (second compound 10 µM): 0.0638 µM
IC50 (second compound 31.6 µM): 0.0389 µM
IC50 (second compound 100 µM): < 0.0316 µM
viability, T/C [1]: 60.4%
viability, T/C [2]: 47.4%
viability, T/C [3]: 27.2%
viability, T/C [4]: 13.5%
viability, T/C [5]: 7.33%
viability, T/C [6]: 9.3%
viability, T/C [7]: 61.2%
viability, T/C [8]: 40.7%
viability, T/C [9]: 23.1%
viability, T/C [10]: 10.2%
viability, T/C [11]: 7.62%
viability, T/C [12]: 9.51%
viability, T/C [13]: 63.1%
viability, T/C [14]: 41%
viability, T/C [15]: 23.3%
viability, T/C [16]: 9.97%
viability, T/C [17]: 7.59%
viability, T/C [18]: 8.83%
viability, T/C [19]: 54.5%
viability, T/C [20]: 30.4%
viability, T/C [21]: 18.1%
viability, T/C [22]: 8.01%
viability, T/C [23]: 6.53%
viability, T/C [24]: 9.03%
viability, T/C [25]: 26.8%
viability, T/C [26]: 14.7%
viability, T/C [27]: 9.58%
viability, T/C [28]: 5.42%
viability, T/C [29]: 17.8%
viability, T/C [30]: 7.51%

COc1cc(C)[nH]c(=O)c1CN1CCc2c(Cl)cc(C(OC)C3COC3)c(Cl)c2C1=O (stereo not given) + Cn1nnc2c(C(N)=O)ncn2c1=O
IC50 (second compound 1 µM): > 10 µM
IC50 (second compound 3.16 µM): > 10 µM
IC50 (second compound 10 µM): > 10 µM
IC50 (second compound 31.6 µM): > 10 µM
IC50 (second compound 100 µM): > 10 µM
viability, T/C [1]: 101%
viability, T/C [2]: 101%
outcome [3]: inactive
viability, T/C [4]: 111%
viability, T/C [5]: 108%
viability, T/C [6]: 103%
viability, T/C [7]: 103%
viability, T/C [8]: 108%
viability, T/C [9]: 119%
viability, T/C [10]: 117%
viability, T/C [11]: 112%
viability, T/C [12]: 110%
viability, T/C [13]: 110%
viability, T/C [14]: 110%
viability, T/C [15]: 122%
viability, T/C [16]: 121%
viability, T/C [17]: 125%
viability, T/C [18]: 118%
viability, T/C [19]: 118%
viability, T/C [20]: 111%
viability, T/C [21]: 111%
viability, T/C [22]: 125%
viability, T/C [23]: 118%
viability, T/C [24]: 119%
viability, T/C [25]: 109%
viability, T/C [26]: 101%
viability, T/C [27]: 99.7%
viability, T/C [28]: 109%
viability, T/C [29]: 115%
viability, T/C [30]: 109%

COc1ccc([C@@H](O)c2cc(-c3ncnc4cc(N5CCOCC5)ccc34)c(F)cc2Cl)nn1 + Cn1nnc2c(C(N)=O)ncn2c1=O
IC50 (second compound 1 µM): 0.797 µM
IC50 (second compound 3.16 µM): 0.873 µM
IC50 (second compound 10 µM): 1.1 µM
IC50 (second compound 31.6 µM): 0.81 µM
IC50 (second compound 100 µM): 0.506 µM
viability, T/C [1]: 80.1%
viability, T/C [2]: 78.5%
viability, T/C [3]: 76.6%
viability, T/C [4]: 34.6%
viability, T/C [5]: 46.3%
viability, T/C [6]: 49.5%
viability, T/C [7]: 102%
viability, T/C [8]: 83.7%
viability, T/C [9]: 77.8%
viability, T/C [10]: 40.8%
viability, T/C [11]: 45.6%
viability, T/C [12]: 52.4%
viability, T/C [13]: 99.2%
viability, T/C [14]: 94.1%
viability, T/C [15]: 65.6%
viability, T/C [16]: 50.8%
viability, T/C [17]: 48.9%
viability, T/C [18]: 33.8%
viability, T/C [19]: 99.3%
viability, T/C [20]: 101%
viability, T/C [21]: 68.1%
viability, T/C [22]: 46.7%
viability, T/C [23]: 30.4%
viability, T/C [24]: 20.8%
viability, T/C [25]: 89.9%
viability, T/C [26]: 81%
viability, T/C [27]: 55%
viability, T/C [28]: 36.5%
viability, T/C [29]: 34%
viability, T/C [30]: 17.3%

Cc1cc(C)c(CNC(=O)c2cc(-c3ccc(CN4CCOCC4)cc3)cc3c2cnn3C2CCCC2)c(=O)[nH]1 + Cn1nnc2c(C(N)=O)ncn2c1=O
IC50 (second compound 1 µM): > 10 µM
IC50 (second compound 3.16 µM): > 10 µM
IC50 (second compound 10 µM): > 10 µM
IC50 (second compound 31.6 µM): > 10 µM
IC50 (second compound 100 µM): > 10 µM
viability, T/C [1]: 96.9%
viability, T/C [2]: 105%
viability, T/C [3]: 100%
outcome [4]: inactive
viability, T/C [5]: 94%
viability, T/C [6]: 76.5%
viability, T/C [7]: 105%
viability, T/C [8]: 102%
viability, T/C [9]: 108%
viability, T/C [10]: 107%
viability, T/C [11]: 92.2%
viability, T/C [12]: 82.2%
viability, T/C [13]: 105%
outcome [14]: inactive
viability, T/C [15]: 108%
viability, T/C [16]: 110%
viability, T/C [17]: 94.3%
viability, T/C [18]: 94.5%
viability, T/C [19]: 113%
viability, T/C [20]: 119%
viability, T/C [21]: 123%
viability, T/C [22]: 108%
viability, T/C [23]: 94.6%
viability, T/C [24]: 85.7%
viability, T/C [25]: 101%
viability, T/C [26]: 108%
viability, T/C [27]: 103%
viability, T/C [28]: 103%
viability, T/C [29]: 107%
viability, T/C [30]: 76.8%

[2H]c1nc(C)nc([2H])c1-c1cc(NC[C@@H](C)c2cccc3c(C(=O)NC)ccnc23)ncn1 + Cn1nnc2c(C(N)=O)ncn2c1=O
IC50 (second compound 1 µM): > 10 µM
IC50 (second compound 3.16 µM): > 10 µM
IC50 (second compound 10 µM): > 10 µM
IC50 (second compound 31.6 µM): > 10 µM
IC50 (second compound 100 µM): > 10 µM
viability, T/C [1]: 93.8%
viability, T/C [2]: 101%
viability, T/C [3]: 90.4%
viability, T/C [4]: 99.2%
viability, T/C [5]: 90.6%
viability, T/C [6]: 87.8%
viability, T/C [7]: 104%
viability, T/C [8]: 90.1%
viability, T/C [9]: 95.3%
viability, T/C [10]: 94.4%
viability, T/C [11]: 98.9%
viability, T/C [12]: 98.7%
viability, T/C [13]: 103%
viability, T/C [14]: 97%
viability, T/C [15]: 90.4%
viability, T/C [16]: 96.8%
viability, T/C [17]: 89.8%
viability, T/C [18]: 94.2%
viability, T/C [19]: 101%
viability, T/C [20]: 105%
viability, T/C [21]: 101%
viability, T/C [22]: 104%
viability, T/C [23]: 109%
viability, T/C [24]: 82.4%
viability, T/C [25]: 87.1%
viability, T/C [26]: 84.2%
viability, T/C [27]: 68.6%
viability, T/C [28]: 70.3%
viability, T/C [29]: 68.2%
viability, T/C [30]: 62.8%
